Reference: patent publication EP4603105A1, “PHARMACEUTICAL COMPOSITION CONTAINING CYCLIC COMPOUND HAVING SELECTIVE KRAS INHIBITORY EFFECT AGAINST HRAS AND NRAS” (CHUGAI SEIYAKU KABUSHIKI KAISHA, priority 2022, dated 2024)

What was measured:
[1] = target: GDP-bound NRAS wild-type protein (Homo sapiens, UniProt P01111); test: Binding to NRAS by surface plasmon resonance (SPR), KD and KD ratio to KRAS; conditions: ratio of KD for GDP-bound NRAS wild-type protein to KD for KRAS
In short: (§1)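 SPR, 30°C: Avi-biotin RAS·GDP captured via Biotin CAPture (~100–300 RU); running buffer HBS pH 7.4, 1 mM DTT, 10 mM MgCl2, 0.01% Tween 20, 10 µM GDP, 4% DMSO. Single-cycle kinetics, 100 µL/min, 75 s injections; 1:1 model → KD.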

HRAS wild-type protein = HRAS wild-type protein (Homo sapiens, UniProt P01112); test: Binding to HRAS by surface plasmon resonance (SPR), KD and KD ratio to KRAS; conditions: ratio of KD for HRAS wild-type protein to KD for KRAS
Sequence of HRAS wild-type protein (P01112 whole entry): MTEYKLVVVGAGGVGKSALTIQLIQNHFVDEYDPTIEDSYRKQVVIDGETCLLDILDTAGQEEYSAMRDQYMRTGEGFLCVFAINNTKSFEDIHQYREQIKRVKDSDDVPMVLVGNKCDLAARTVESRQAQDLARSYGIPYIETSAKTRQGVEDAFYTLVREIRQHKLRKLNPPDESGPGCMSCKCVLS
In short: as §1

[2] = test system: human lung cancer strain NCI-H441; format: cell-based
In short: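 Proliferation was scored by […] measured after the reagent was added to cultures kept at 37°C in 5% carbon dioxide.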

Sequence of GDP-bound NRAS wild-type protein (P01111 whole entry): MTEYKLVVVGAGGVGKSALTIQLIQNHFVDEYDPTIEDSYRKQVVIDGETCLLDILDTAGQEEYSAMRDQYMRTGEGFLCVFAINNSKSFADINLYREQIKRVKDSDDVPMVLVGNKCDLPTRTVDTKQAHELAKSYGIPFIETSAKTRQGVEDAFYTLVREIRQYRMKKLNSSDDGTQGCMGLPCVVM

Structure (SMILES) | NRAS /KRAS [1] | HRAS /KRAS (HRAS wild-type protein) | IC50 [2]
CC[C@H](C)[C@@H]1NC(=O)[C@H](CC(C)C)N(C)C(=O)C[C@@H](C(=O)N2CCOCC2)N(C)C(=O)[C@H](C2CCCC2)N(C)C(=O)C2(CCC2)NC(=O)[C@@H]2[C@@H](OCC3CC3)CCN2C(=O)[C@H](CCc2cc(F)c(C(F)(F)F)c(F)c2)NC(=O)CN(C)C(=O)[C@H](Cc2ccc(C(F)(F)F)cc2)N2CCCC[C@@H](C2=O)N(C)C(=O)CN(C)C1=O [PP1072] | B (a compound having 3 or more and less than 10 is denoted as B) | B (a compound having 3 or more and less than 10 is denoted as B) | 13 nM
CC[C@H](C)[C@@H]1NC(=O)[C@H](CC(C)C)N(C)C(=O)C[C@@H](C(=O)N2CCOCC2)N(C)C(=O)[C@H](C2CCCC2)N(C)C(=O)C2(CCC2)NC(=O)[C@@H]2[C@@H](OCC3CCCC3)CCN2C(=O)[C@H](CCc2cc(F)c(C(F)(F)F)c(F)c2)NC(=O)CN(C)C(=O)[C@H](Cc2ccc(C(F)(F)F)cc2)N2CCCC[C@@H](C2=O)N(C)C(=O)CN(C)C1=O [PP1073] | B (a compound having 3 or more and less than 10 is denoted as B) | B (a compound having 3 or more and less than 10 is denoted as B) | 83.7 nM
CC[C@H](C)[C@@H]1NC(=O)[C@H](CC(C)C)N(C)C(=O)C[C@@H](C(=O)N2CCOCC2)N(C)C(=O)[C@H](C2CCCC2)N(C)C(=O)C2(CCC2)NC(=O)[C@@H]2[C@@H](OC)CCN2C(=O)[C@H](CCc2cc(F)c(C(F)(F)F)c(F)c2)NC(=O)CN(C)C(=O)[C@H](Cc2ccc(C(F)(F)F)cc2)N2CCCC[C@@H](C2=O)N(C)C(=O)CN(C)C1=O [PP1075] | B (a compound having 3 or more and less than 10 is denoted as B) | B (a compound having 3 or more and less than 10 is denoted as B) | 21.8 nM
CCO[C@H]1CCN2C(=O)[C@H](CCc3cc(F)c(C(F)(F)F)c(F)c3)NC(=O)CN(C)C(=O)[C@H](Cc3ccc(C(F)(F)F)cc3)N3CCCC[C@@H](C3=O)N(C)C(=O)CN(C)C(=O)[C@H]([C@@H](C)CC)NC(=O)[C@H](CC(C)C)N(C)C(=O)C[C@@H](C(=O)N3CCOCC3)N(C)C(=O)[C@H](C3CCCC3)N(C)C(=O)C3(CCC3)NC(=O)[C@H]12 [PP1076] | B (a compound having 3 or more and less than 10 is denoted as B) | B (a compound having 3 or more and less than 10 is denoted as B) | 4.6 nM
CCCO[C@H]1CCN2C(=O)[C@H](CCc3cc(F)c(C(F)(F)F)c(F)c3)NC(=O)CN(C)C(=O)[C@H](Cc3ccc(C(F)(F)F)cc3)N3CCCC[C@@H](C3=O)N(C)C(=O)CN(C)C(=O)[C@H]([C@@H](C)CC)NC(=O)[C@H](CC(C)C)N(C)C(=O)C[C@@H](C(=O)N3CCOCC3)N(C)C(=O)[C@H](C3CCCC3)N(C)C(=O)C3(CCC3)NC(=O)[C@H]12 [PP1077] | B (a compound having 3 or more and less than 10 is denoted as B) | B (a compound having 3 or more and less than 10 is denoted as B) | 14.9 nM
CC[C@H](C)[C@@H]1NC(=O)[C@H](CC(C)C)N(C)C(=O)C[C@@H](C(=O)N2CCOCC2)N(C)C(=O)[C@H](C2CCCC2)N(C)C(=O)C2(CCC2)NC(=O)[C@@H]2[C@H](OC)CCN2C(=O)[C@H](CCc2cc(F)c(C(F)(F)F)c(F)c2)NC(=O)CN(C)C(=O)[C@H](Cc2ccc(C(F)(F)F)cc2)N2CCCC[C@@H](C2=O)N(C)C(=O)CN(C)C1=O [PP1078] | B (a compound having 3 or more and less than 10 is denoted as B) | B (a compound having 3 or more and less than 10 is denoted as B) | 610 nM
CCO[C@@H]1CCN2C(=O)[C@H](CCc3cc(F)c(C(F)(F)F)c(F)c3)NC(=O)CN(C)C(=O)[C@H](Cc3ccc(C(F)(F)F)cc3)N3CCCC[C@@H](C3=O)N(C)C(=O)CN(C)C(=O)[C@H]([C@@H](C)CC)NC(=O)[C@H](CC(C)C)N(C)C(=O)C[C@@H](C(=O)N3CCOCC3)N(C)C(=O)[C@H](C3CCCC3)N(C)C(=O)C3(CCC3)NC(=O)[C@H]12 [PP1079] | B (a compound having 3 or more and less than 10 is denoted as B) | B (a compound having 3 or more and less than 10 is denoted as B) | 27.2 nM
CCCO[C@@H]1CCN2C(=O)[C@H](CCc3cc(F)c(C(F)(F)F)c(F)c3)NC(=O)CN(C)C(=O)[C@H](Cc3ccc(C(F)(F)F)cc3)N3CCCC[C@@H](C3=O)N(C)C(=O)CN(C)C(=O)[C@H]([C@@H](C)CC)NC(=O)[C@H](CC(C)C)N(C)C(=O)C[C@@H](C(=O)N3CCOCC3)N(C)C(=O)[C@H](C3CCCC3)N(C)C(=O)C3(CCC3)NC(=O)[C@H]12 [PP1080] | B (a compound having 3 or more and less than 10 is denoted as B) | B (a compound having 3 or more and less than 10 is denoted as B) | 39.2 nM
CC[C@H](C)[C@@H]1NC(=O)[C@H](CC(C)C)N(C)C(=O)C[C@@H](C(=O)N2CCOCC2)N(C)C(=O)[C@H](C2CCCC2)N(C)C(=O)C2(CCC2)NC(=O)[C@@H]2[C@H](OC)CCN2C(=O)[C@H](CCc2cc(F)c(C(F)(F)F)c(F)c2)NC(=O)CN(C)C(=O)[C@H](Cc2ccc(C(F)(F)F)cc2)N2CCCC[C@@H](C2=O)N(C)C(=O)CN(C)C1=O [PP1084] | C (A compound having a KD ratio of 0.1 or more and less than 3 is denoted as C) | B (a compound having 3 or more and less than 10 is denoted as B) | 83.9 nM
CC[C@H](C)[C@@H]1NC(=O)[C@H](CC(C)C)N(C)C(=O)C[C@@H](C(=O)N2CCOCC2)N(C)C(=O)[C@H](C2CCCC2)N(C)C(=O)C2(CCC2)NC(=O)[C@@H]2[C@H](OC)CCN2C(=O)[C@H](CCc2cc(F)c(C(F)(F)F)c(F)c2)NC(=O)CN(C)C(=O)[C@H](Cc2ccc(C(F)(F)F)cc2)N2CCCCC[C@@H](C2=O)N(C)C(=O)CN(C)C1=O [PP1085] | A (a compound having 10 or more and less than 20 is denoted as A) | A (a compound having 10 or more and less than 20 is denoted as A) | 590 nM
CCO[C@@H]1C[C@H]2C(=O)NC3(CCC3)C(=O)N(C)[C@@H](C3CCCCC3)C(=O)N(C)[C@H](C(=O)N(C)C)CC(=O)N(C)[C@@H](CC)C(=O)N[C@@H]([C@@H](C)CC)C(=O)N(C)CC(=O)N(C)[C@H]3C/C=C\CCN(C3=O)[C@@H](Cc3ccc(C(F)(F)F)cc3)C(=O)N(C)CC(=O)N[C@@H](CCc3cc(F)c(C(F)(F)F)c(F)c3)C(=O)N2C1 [PP1086] | AA (a compound having 20 or more is denoted as AA) | A (a compound having 10 or more and less than 20 is denoted as A) | 22.4 nM
CCO[C@@H]1C[C@H]2C(=O)NC3(CCC3)C(=O)N(C)[C@@H]([C@@H](C)CC)C(=O)N(C)[C@H](C(=O)N(C)C)CC(=O)N(C)[C@@H](CC)C(=O)N[C@@H]([C@@H](C)CC)C(=O)N(C)CC(=O)N(C)[C@H]3C/C=C\CCN(C3=O)[C@@H](Cc3ccc(C(F)(F)F)cc3)C(=O)N(C)CC(=O)N[C@@H](CCc3cc(F)c(C(F)(F)F)c(F)c3)C(=O)N2C1 [PP1087] | A (a compound having 10 or more and less than 20 is denoted as A) | A (a compound having 10 or more and less than 20 is denoted as A) | 40.4 nM
CCO[C@@H]1C[C@H]2C(=O)NC3(CCC3)C(=O)N(C)[C@@H](C(C)C)C(=O)N(C)[C@H](C(=O)N(C)C)CC(=O)N(C)[C@@H](CC)C(=O)N[C@@H]([C@@H](C)CC)C(=O)N(C)CC(=O)N(C)[C@H]3C/C=C\CCN(C3=O)[C@@H](Cc3ccc(C(F)(F)F)cc3)C(=O)N(C)CC(=O)N[C@@H](CCc3cc(F)c(C(F)(F)F)c(F)c3)C(=O)N2C1 [PP1088] | A (a compound having 10 or more and less than 20 is denoted as A) | A (a compound having 10 or more and less than 20 is denoted as A) | 195 nM
CCO[C@@H]1C[C@H]2C(=O)NC3(CCC3)C(=O)N(C)[C@@H](CC(C)C)C(=O)N(C)[C@H](C(=O)N(C)C)CC(=O)N(C)[C@@H](CC)C(=O)N[C@@H]([C@@H](C)CC)C(=O)N(C)CC(=O)N(C)[C@H]3C/C=C\CCN(C3=O)[C@@H](Cc3ccc(C(F)(F)F)cc3)C(=O)N(C)CC(=O)N[C@@H](CCc3cc(F)c(C(F)(F)F)c(F)c3)C(=O)N2C1 [PP1089] | AA (a compound having 20 or more is denoted as AA) | A (a compound having 10 or more and less than 20 is denoted as A) | 57.3 nM
CCO[C@@H]1C[C@H]2C(=O)NC3(CCC3)C(=O)N(C)[C@@H](C3CCCC3)C(=O)N(C)[C@H](C(=O)N3CCCC3)CC(=O)N(C)[C@@H](CC)C(=O)N[C@@H]([C@@H](C)CC)C(=O)N(C)CC(=O)N(C)[C@H]3C/C=C\CCN(C3=O)[C@@H](Cc3ccc(C(F)(F)F)cc3)C(=O)N(C)CC(=O)N[C@@H](CCc3cc(F)c(C(F)(F)F)c(F)c3)C(=O)N2C1 [PP1090] | AA (a compound having 20 or more is denoted as AA) | A (a compound having 10 or more and less than 20 is denoted as A) | 20.9 nM
CCO[C@@H]1C[C@H]2C(=O)NC3(CCC3)C(=O)N(C)[C@@H](C3CCCC3)C(=O)N(C)[C@H](C(=O)N3CCC3)CC(=O)N(C)[C@@H](CC)C(=O)N[C@@H]([C@@H](C)CC)C(=O)N(C)CC(=O)N(C)[C@H]3C/C=C\CCN(C3=O)[C@@H](Cc3ccc(C(F)(F)F)cc3)C(=O)N(C)CC(=O)N[C@@H](CCc3cc(F)c(C(F)(F)F)c(F)c3)C(=O)N2C1 [PP1091] | A (a compound having 10 or more and less than 20 is denoted as A) | B (a compound having 3 or more and less than 10 is denoted as B) | 17.9 nM
